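Exposure lasted 48 hours, with cells grown in 96-well plates and compounds tested at five concentrations. Definition used: TGI = concentration required for complete inhibition of growth.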
How the values were obtained:
Test in all cases: NCI tumour cell line growth inhibition, 48 h
SR leukemia = test system: SR leukemia
HCT-116 colon = test system: HCT-116 colon
SK-MEL-5 melanoma = test system: SK-MEL-5 melanoma
UO-31 renal = test system: UO-31 renal
SF-295 CNS = test system: SF-295 CNS
SK-OV-3 ovarian = test system: SK-OV-3 ovarian
BT-549 breast = test system: BT-549 breast
HOP-62 NSCLC = test system: HOP-62 NSCLC
MOLT-4 leukemia = test system: MOLT-4 leukemia

Compound | TGI (SR leukemia) | TGI (HCT-116 colon) | TGI (SK-MEL-5 melanoma) | TGI (UO-31 renal) | TGI (SF-295 CNS) | TGI (SK-OV-3 ovarian) | TGI (BT-549 breast) | TGI (HOP-62 NSCLC) | TGI (MOLT-4 leukemia)
O=C(CN1CCCCC1)CC(O)(C(F)(F)F)C(F)(F)F | > 100 µM | > 100 µM | > 100 µM | > 100 µM | > 100 µM | > 100 µM | > 100 µM |  | 
COc1cc2c(cc1OC)C1c3ccccc3CCN1CC2 (configuration not stated) | > 100 µM | > 100 µM | > 100 µM |  | > 100 µM | > 100 µM |  | > 100 µM | > 100 µM
COc1cc(C2c3cc4c(cc3OC(NN=C(C)C)C2C)OCO4)cc(OC)c1O (configuration not stated) | 16.5 µM | > 100 µM | 38.1 µM | > 100 µM | > 100 µM |  | > 100 µM |  | 
CCOP(=O)(OCC)C1C(CO)OC(n2ccc(=O)[nH]c2=O)C1O (configuration not stated) | > 100 µM | > 100 µM | > 100 µM | > 100 µM | > 100 µM |  | > 100 µM | > 100 µM | 
CC1(C)O[C@@H]2COC(=O)[C@@H]2O1 | > 100 µM | > 100 µM | > 100 µM | > 100 µM | > 100 µM | > 100 µM | > 100 µM |  | > 100 µM
NC(CSCc1ccccc1)C(=O)O (configuration not stated) | > 100 µM | > 100 µM | > 100 µM | > 100 µM | > 100 µM | > 100 µM | > 100 µM | > 100 µM | 
COC(=O)c1c(C)cccc1/C=C1/Cc2c(C)cccc2C1=O |  | > 100 µM | > 100 µM | > 100 µM | > 100 µM | > 100 µM | > 100 µM | > 100 µM | > 100 µM
CCC1=CCC23C(=O)C=CC(=O)C2(C1)C(=O)c1cccc(OC)c1C3=O (configuration not stated) | 41.4 µM | 30.4 µM | 31.5 µM | 22.7 µM | > 100 µM |  |  | 42.9 µM | 17.4 µM
c1ccc2c(c1)[nH]c1nc3cc(-c4ccc5nc6c(nc5c4)[nH]c4ccccc46)ccc3nc12 |  | > 100 µM | > 100 µM | > 100 µM | > 100 µM | > 100 µM | > 100 µM | > 100 µM | > 100 µM
CCSC1=CC(=O)c2nc3ccccc3c3ccnc1c23 | 15.5 µM | > 25.1 µM |  | 19 µM | 31 µM | > 100 µM | 26.3 µM | > 51.3 µM | 15.3 µM
Nn1c(CCCCCCCCc2nnc(COc3c(O)ccc4ccccc34)n2N)nnc1COc1c(O)ccc2ccccc12 |  | > 100 µM | > 100 µM | > 100 µM | > 100 µM | > 100 µM | > 100 µM |  | > 100 µM
CSCCC(NCc1c(O)ccc2c(-c3ccccc3)cc(=O)oc12)C(=O)O (configuration not stated) | > 100 µM | > 100 µM | > 100 µM | > 100 µM | > 100 µM | > 100 µM |  | > 100 µM | > 100 µM
CN(C)NC(=S)Nc1ccccc1Br | > 100 µM | > 100 µM | > 100 µM | > 100 µM | > 100 µM | > 100 µM | > 100 µM |  | > 100 µM
